# System: whole blood neutrophil CD11b expression (CXCL2-stimulated)
# Test: Neutrophil CD11b Stimulation Following Oral Dosing to Rats
# Format: in vivo, Lewis rats
# Method: Rat whole blood, 3 ml, was drawn by cardiac puncture in a syringe containing 100 μl of 0.25 M EDTA (GIBCO, Grand Island, N.Y.). Rat CXCL2 (PeproTech, Rocky Hill, N.J.) stock was made by reconstitution in Kreb's/0.1% BSA (KBSA) at 10 μM. The stock was diluted to “11×” the maximum concentration used in DPBS (GIBCO) and serially diluted in KBSA/DPBS vehicle. […] The tubes were incubated for 30 minutes in a 37° C. bath, with gentle hand agitation every 10 minutes. The samples were then placed on ice for 10 minutes followed by addition of 10 μl of anti-rat-CD11b-FITC or FITC-labeled mouse IgG2a isotype control (both Antigenix America, Huntington Station, N.Y.) and incubated for 30 minutes on ice. FACS Lysing Solution (Becton Dickinson, San Jose, Calif.), 1 ml of 1×, was added with immediate vigorous vortexing, followed by additional vortex after the solution was added to the last sample. Samples were incubated for 10 minutes at room temperature and the leukocytes were pelleted at ˜300×g and washed with DPBS. Cells were resuspended in 650 μl of 1% paraformaldahyde. […] FL1 (green FITC fluorescence, directly relating to CD11b content) of this population was then measured as mean channel fluorescence by analysis with CellQuest software.
smiles,measurement,setting,value
"Cc1ccc(S(=O)(=O)O)cc1.O=C(Nc1ccc(Cl)c(S(=O)(=O)N2CCNCC2)c1O)Nc1cccc(F)c1Cl [present compound, N-[4-chloro-2-hydroxy-3-(piperazine-1-sulfonyl)phenyl]-N′-(2-chloro-3-fluorophenyl)urea p-toluenesulfonate]",EC50 of the CXCL2 concentration response curve (CD11b expression) in treated rats,"oral 10 mg/kg, Lewis rats, vehicle-treated rats 4.7 nM (1.9-7.4; 95% C.I.), treated 95% C.I. 10.0-14.7, p<0.001, n=6 per group",12.3 nM
same,inhibition of whole blood neutrophil CD11b expression,"oral dosing to Lewis rats at 10 mg/kg, blood drawn one hour later",active

# — patent publication US20090170871A1, “IL-8 Receptor Antagonists” (SMITHKLINE BEECHAM CORPORATION, priority 2006, published 2009)
